Data: ChEMBL document CHEMBL1147101, “Development and persistence of antimicrobial resistance in Pseudomonas aeruginosa: a longitudinal observation in mechanically ventilated patients” (Antimicrob Agents Chemother, 2007)
Active and inactive are the calls of the source.

How the values were obtained:
Type in all cases: functional, organism-based
Conditions in all cases: Trachea
Pseudomonas aeruginosa [1] = assay: Antimicrobial activity against Pseudomonas aeruginosa 65.38-4 tracheal isolates from mechanically ventilated tuberculosis patient
Pseudomonas aeruginosa [2] = assay: Antimicrobial activity against Pseudomonas aeruginosa 13D11 tracheal isolates from mechanically ventilated chronic respiratory insufficiency patient
Pseudomonas aeruginosa [3] = assay: Antimicrobial activity against Pseudomonas aeruginosa 15G10 tracheal isolates from mechanically ventilated chronic respiratory insufficiency patient
Pseudomonas aeruginosa [4] = assay: Antimicrobial activity against Pseudomonas aeruginosa 2A1 tracheal isolates from mechanically ventilated tuberculosis patient
Pseudomonas aeruginosa [5] = assay: Antimicrobial activity against Pseudomonas aeruginosa 2C1 tracheal isolates from mechanically ventilated tuberculosis patient
Pseudomonas aeruginosa [6] = assay: Antimicrobial activity against Pseudomonas aeruginosa 2C2 tracheal isolates from mechanically ventilated tuberculosis patient
Pseudomonas aeruginosa [7] = assay: Antimicrobial activity against Pseudomonas aeruginosa 65.68-2 tracheal isolates from mechanically ventilated tuberculosis patient
Pseudomonas aeruginosa [8] = assay: Antimicrobial activity against Pseudomonas aeruginosa 2A5 tracheal isolates from mechanically ventilated chronic respiratory insufficiency patient
Pseudomonas aeruginosa [9] = assay: Antimicrobial activity against Pseudomonas aeruginosa 13D3 tracheal isolates from mechanically ventilated chronic respiratory insufficiency patient
Pseudomonas aeruginosa [10] = assay: Antimicrobial activity against Pseudomonas aeruginosa 13D6 tracheal isolates from mechanically ventilated chronic respiratory insufficiency patient
Pseudomonas aeruginosa [11] = assay: Antimicrobial activity against Pseudomonas aeruginosa 16D2 tracheal isolates from mechanically ventilated chronic respiratory insufficiency patient
Pseudomonas aeruginosa [12] = assay: Antimicrobial activity against Pseudomonas aeruginosa 19B1 tracheal isolates from mechanically ventilated chronic respiratory insufficiency patient
Pseudomonas aeruginosa [13] = assay: Antimicrobial activity against Pseudomonas aeruginosa 19C2 tracheal isolates from mechanically ventilated chronic respiratory insufficiency patient
Pseudomonas aeruginosa [14] = assay: Antimicrobial activity against Pseudomonas aeruginosa 19C5 tracheal isolates from mechanically ventilated chronic respiratory insufficiency patient
Pseudomonas aeruginosa [15] = assay: Antimicrobial activity against Pseudomonas aeruginosa 19C12 tracheal isolates from mechanically ventilated chronic respiratory insufficiency patient
Pseudomonas aeruginosa [16] = assay: Antimicrobial activity against Pseudomonas aeruginosa 19D10 tracheal isolates from mechanically ventilated chronic respiratory insufficiency patient
Pseudomonas aeruginosa [17] = assay: Antimicrobial activity against Pseudomonas aeruginosa 9A1 tracheal isolates from mechanically ventilated chronic respiratory insufficiency patient
Pseudomonas aeruginosa [18] = assay: Antimicrobial activity against Pseudomonas aeruginosa 9A3 tracheal isolates from mechanically ventilated chronic respiratory insufficiency patient
Pseudomonas aeruginosa [19] = assay: Antimicrobial activity against Pseudomonas aeruginosa 10A6 tracheal isolates from mechanically ventilated chronic respiratory insufficiency patient
Pseudomonas aeruginosa [20] = assay: Antimicrobial activity against Pseudomonas aeruginosa 29G8 tracheal isolates from mechanically ventilated chronic respiratory insufficiency patient
Pseudomonas aeruginosa [21] = assay: Antimicrobial activity against Pseudomonas aeruginosa 29H1 tracheal isolates from mechanically ventilated chronic respiratory insufficiency patient
Pseudomonas aeruginosa [22] = assay: Antimicrobial activity against Pseudomonas aeruginosa 19E1 tracheal isolates from mechanically ventilated chronic respiratory insufficiency patient
Pseudomonas aeruginosa [23] = assay: Antimicrobial activity against Pseudomonas aeruginosa 19E12 tracheal isolates from mechanically ventilated chronic respiratory insufficiency patient
Pseudomonas aeruginosa [24] = assay: Antimicrobial activity against Pseudomonas aeruginosa 19F1 tracheal isolates from mechanically ventilated chronic respiratory insufficiency patient
Pseudomonas aeruginosa [25] = assay: Antimicrobial activity against Pseudomonas aeruginosa 19F2 tracheal isolates from mechanically ventilated chronic respiratory insufficiency patient
Pseudomonas aeruginosa [26] = assay: Antimicrobial activity against Pseudomonas aeruginosa 22D2 tracheal isolates from mechanically ventilated chronic respiratory insufficiency patient
Pseudomonas aeruginosa [27] = assay: Antimicrobial activity against Pseudomonas aeruginosa 22D6 tracheal isolates from mechanically ventilated chronic respiratory insufficiency patient
Pseudomonas aeruginosa [28] = assay: Antimicrobial activity against Pseudomonas aeruginosa 22E1 tracheal isolates from mechanically ventilated chronic respiratory insufficiency patient
Pseudomonas aeruginosa [29] = assay: Antimicrobial activity against Pseudomonas aeruginosa 22C5 tracheal isolates from mechanically ventilated chronic respiratory insufficiency patient
Pseudomonas aeruginosa [30] = assay: Antimicrobial activity against Pseudomonas aeruginosa 24D1 tracheal isolates from mechanically ventilated chronic respiratory insufficiency patient
Pseudomonas aeruginosa [31] = assay: Antimicrobial activity against Pseudomonas aeruginosa 24D5 tracheal isolates from mechanically ventilated chronic respiratory insufficiency patient
Pseudomonas aeruginosa [32] = assay: Antimicrobial activity against Pseudomonas aeruginosa 24E1 tracheal isolates from mechanically ventilated chronic respiratory insufficiency patient
Pseudomonas aeruginosa [33] = assay: Antimicrobial activity against Pseudomonas aeruginosa 24E2 tracheal isolates from mechanically ventilated chronic respiratory insufficiency patient
Pseudomonas aeruginosa [34] = assay: Antimicrobial activity against Pseudomonas aeruginosa 24E5 tracheal isolates from mechanically ventilated chronic respiratory insufficiency patient
Pseudomonas aeruginosa [35] = assay: Antimicrobial activity against Pseudomonas aeruginosa 24E6 tracheal isolates from mechanically ventilated chronic respiratory insufficiency patient
Pseudomonas aeruginosa [36] = assay: Antimicrobial activity against Pseudomonas aeruginosa 23C5 tracheal isolates from mechanically ventilated chronic respiratory insufficiency patient
Pseudomonas aeruginosa [37] = assay: Antimicrobial activity against Pseudomonas aeruginosa 24F4 tracheal isolates from mechanically ventilated chronic respiratory insufficiency patient
Pseudomonas aeruginosa [38] = assay: Antimicrobial activity against Pseudomonas aeruginosa IA5 tracheal isolates from mechanically ventilated tuberculosis patient
Pseudomonas aeruginosa [39] = assay: Antimicrobial activity against Pseudomonas aeruginosa 65.33-3 tracheal isolates from mechanically ventilated tuberculosis patient
Pseudomonas aeruginosa [40] = assay: Antimicrobial activity against Pseudomonas aeruginosa 65.36-4 tracheal isolates from mechanically ventilated tuberculosis patient
Pseudomonas aeruginosa [41] = assay: Antimicrobial activity against Pseudomonas aeruginosa 65.38-1 tracheal isolates from mechanically ventilated tuberculosis patient
Pseudomonas aeruginosa [42] = assay: Antimicrobial activity against Pseudomonas aeruginosa 65.38-2 tracheal isolates from mechanically ventilated tuberculosis patient
Pseudomonas aeruginosa [43] = assay: Antimicrobial activity against Pseudomonas aeruginosa 1A9 tracheal isolates from mechanically ventilated tuberculosis patient
Pseudomonas aeruginosa [44] = assay: Antimicrobial activity against Pseudomonas aeruginosa 2B5 tracheal isolates from mechanically ventilated tuberculosis patient
Pseudomonas aeruginosa [45] = assay: Antimicrobial activity against Pseudomonas aeruginosa 65.18-1 tracheal isolates from mechanically ventilated tuberculosis patient
Pseudomonas aeruginosa [46] = assay: Antimicrobial activity against Pseudomonas aeruginosa 65.18-2 tracheal isolates from mechanically ventilated tuberculosis patient
Pseudomonas aeruginosa [47] = assay: Antimicrobial activity against Pseudomonas aeruginosa 65.18-3 tracheal isolates from mechanically ventilated tuberculosis patient
Pseudomonas aeruginosa [48] = assay: Antimicrobial activity against Pseudomonas aeruginosa IC7 tracheal isolates from mechanically ventilated tuberculosis patient

NCC[C@H](O)C(=O)N[C@@H]1C[C@H](N)[C@@H](O[C@H]2O[C@H](CN)[C@@H](O)[C@H](O)[C@H]2O)[C@H](O)[C@H]1O[C@H]1O[C@H](CO)[C@@H](O)[C@H](N)[C@H]1O
active: Activity (Pseudomonas aeruginosa [2]) | Activity (Pseudomonas aeruginosa [3]) | Activity (Pseudomonas aeruginosa [4]) | Activity (Pseudomonas aeruginosa [6]) | Activity (Pseudomonas aeruginosa [7]) | Activity (Pseudomonas aeruginosa [8]) | Activity (Pseudomonas aeruginosa [9]) | Activity (Pseudomonas aeruginosa [10]) | Activity (Pseudomonas aeruginosa [11]) | Activity (Pseudomonas aeruginosa [12]) | Activity (Pseudomonas aeruginosa [13]) | Activity (Pseudomonas aeruginosa [14]) | Activity (Pseudomonas aeruginosa [15]) | Activity (Pseudomonas aeruginosa [16]) | Activity (Pseudomonas aeruginosa [17]) | Activity (Pseudomonas aeruginosa [18]) | Activity (Pseudomonas aeruginosa [19]) | Activity (Pseudomonas aeruginosa [20]) | Activity (Pseudomonas aeruginosa [21]) | Activity (Pseudomonas aeruginosa [22]) | Activity (Pseudomonas aeruginosa [23]) | Antimicrobial activity (Pseudomonas aeruginosa [24]) | Activity (Pseudomonas aeruginosa [25]) | Activity (Pseudomonas aeruginosa [26]) | Activity (Pseudomonas aeruginosa [27]) | Activity (Pseudomonas aeruginosa [28]) | Activity (Pseudomonas aeruginosa [29]) | Activity (Pseudomonas aeruginosa [30]) | Activity (Pseudomonas aeruginosa [31]) | Activity (Pseudomonas aeruginosa [32]) | Activity (Pseudomonas aeruginosa [33]) | Activity (Pseudomonas aeruginosa [34]) | Activity (Pseudomonas aeruginosa [35]) | Activity (Pseudomonas aeruginosa [36]) | Activity (Pseudomonas aeruginosa [37]) | Activity (Pseudomonas aeruginosa [38])
inactive: Activity (Pseudomonas aeruginosa [1]) | Activity (Pseudomonas aeruginosa [5]) | Activity (Pseudomonas aeruginosa [39]) | Activity (Pseudomonas aeruginosa [40]) | Activity (Pseudomonas aeruginosa [41]) | Activity (Pseudomonas aeruginosa [42])

CC(C)(O/N=C(\C(=O)N[C@@H]1C(=O)N2C(C(=O)[O-])=C(C[n+]3ccccc3)CS[C@H]12)c1csc(N)n1)C(=O)O
active: Activity (Pseudomonas aeruginosa [2]) | Activity (Pseudomonas aeruginosa [3]) | Activity (Pseudomonas aeruginosa [6]) | Activity (Pseudomonas aeruginosa [44]) | Activity (Pseudomonas aeruginosa [7]) | Activity (Pseudomonas aeruginosa [8]) | Activity (Pseudomonas aeruginosa [9]) | Activity (Pseudomonas aeruginosa [10]) | Activity (Pseudomonas aeruginosa [11]) | Activity (Pseudomonas aeruginosa [12]) | Activity (Pseudomonas aeruginosa [13]) | Activity (Pseudomonas aeruginosa [15]) | Activity (Pseudomonas aeruginosa [16]) | Activity (Pseudomonas aeruginosa [17]) | Activity (Pseudomonas aeruginosa [18]) | Activity (Pseudomonas aeruginosa [19]) | Activity (Pseudomonas aeruginosa [20]) | Activity (Pseudomonas aeruginosa [22]) | Activity (Pseudomonas aeruginosa [23]) | Antimicrobial activity (Pseudomonas aeruginosa [24]) | Activity (Pseudomonas aeruginosa [25]) | Activity (Pseudomonas aeruginosa [26]) | Activity (Pseudomonas aeruginosa [27]) | Activity (Pseudomonas aeruginosa [28]) | Activity (Pseudomonas aeruginosa [29]) | Activity (Pseudomonas aeruginosa [30]) | Activity (Pseudomonas aeruginosa [31]) | Activity (Pseudomonas aeruginosa [32]) | Activity (Pseudomonas aeruginosa [33]) | Activity (Pseudomonas aeruginosa [34]) | Activity (Pseudomonas aeruginosa [35]) | Activity (Pseudomonas aeruginosa [36]) | Activity (Pseudomonas aeruginosa [37]) | Activity (Pseudomonas aeruginosa [45]) | Activity (Pseudomonas aeruginosa [46]) | Activity (Pseudomonas aeruginosa [47]) | Activity (Pseudomonas aeruginosa [38]) | Activity (Pseudomonas aeruginosa [48])
inactive: Activity (Pseudomonas aeruginosa [43]) | Activity (Pseudomonas aeruginosa [5]) | Activity (Pseudomonas aeruginosa [40]) | Activity (Pseudomonas aeruginosa [41])

GENTAMICIN
inactive: Activity (Pseudomonas aeruginosa [1]) | Activity (Pseudomonas aeruginosa [43]) | Activity (Pseudomonas aeruginosa [5]) | Activity (Pseudomonas aeruginosa [7]) | Activity (Pseudomonas aeruginosa [39]) | Activity (Pseudomonas aeruginosa [40]) | Activity (Pseudomonas aeruginosa [41]) | Activity (Pseudomonas aeruginosa [42])
active: Activity (Pseudomonas aeruginosa [2]) | Activity (Pseudomonas aeruginosa [3]) | Activity (Pseudomonas aeruginosa [8]) | Activity (Pseudomonas aeruginosa [9]) | Activity (Pseudomonas aeruginosa [10]) | Activity (Pseudomonas aeruginosa [11]) | Activity (Pseudomonas aeruginosa [12]) | Activity (Pseudomonas aeruginosa [13]) | Activity (Pseudomonas aeruginosa [14]) | Activity (Pseudomonas aeruginosa [15]) | Activity (Pseudomonas aeruginosa [16]) | Activity (Pseudomonas aeruginosa [17]) | Activity (Pseudomonas aeruginosa [18]) | Activity (Pseudomonas aeruginosa [19]) | Activity (Pseudomonas aeruginosa [20]) | Activity (Pseudomonas aeruginosa [21]) | Activity (Pseudomonas aeruginosa [22]) | Activity (Pseudomonas aeruginosa [23]) | Antimicrobial activity (Pseudomonas aeruginosa [24]) | Activity (Pseudomonas aeruginosa [25]) | Activity (Pseudomonas aeruginosa [28]) | Activity (Pseudomonas aeruginosa [29]) | Activity (Pseudomonas aeruginosa [31]) | Activity (Pseudomonas aeruginosa [32]) | Activity (Pseudomonas aeruginosa [33]) | Activity (Pseudomonas aeruginosa [35]) | Activity (Pseudomonas aeruginosa [36])
